The test deals with tumor-associated pericytes and VEC. Description: Day 60 splenic CD8+ T cell IFN-γ response in mice cured of B16 by vaccination. The format is cell-based, HHD mice. As to conditions: 60 days after tumor inoculation, IFN-γ ELISA (FIG. 12). An excerpt: HHD mice bearing established day seven B16 melanomas were therapeutically vaccinated with peptides derived from the TASA DLK1 or RGS5 as described in FIG. 11B. Tumors regressed to a non-detectable level over the next two weeks. Sixty days after tumor inoculation, CD8^+ T cells were MACS-isolated from the spleens of these animals and evaluated for IFN-γ production (by ELISA) in response to pericytes and VEC (flow-sorted from day 19 untreated B16 tumors or tumor-uninvolved kidneys of B16-bearing HHD mice), as well as, HLA-A2^+ T2 cells (control or pulsed with the indicated peptides). *p<0.05 versus anti-class I mAb blockade (when evaluating responses against pericytes, VEC or B16 tumor cells) or T2 cells only (when evaluating anti-peptide responses). […]
Evaluation of Specific CD8^+ T Cell Responses in HHD Mice. MACS (Miltenyi Biotec) CD8^+ splenocytes were harvested (from 3 mice/group) 7 days after the second round of DC-based vaccination (i.e. day 21 after tumor inoculation) and analyzed for reactivity against unpulsed T2 cells, TBVA peptide-pulsed T2 cells, or day 19 (flow-sorted) B16-derived PDGFRβ^+CD31^negH-2K^b(neg) pericytes or PDGFRβ^negCD31^+H-2K^b(neg) VEC isolated as previously described (Zhao et al., Mol Ther., 19:805-814, 2011). […] After 48 h, supernatants were analyzed for mIFN-γ content by specific ELISA (BD-Biosciences; lower detection limit=31.3 pg/ml). […]
(In general: An ELISA detects its analyte on a solid surface through an enzyme-linked reagent.)

The values that follow come from patent US9937250B2, “Immunogenic tumor associated stromal cell antigen peptides and methods of their use” (University of Pittsburgh—Of the Commonwealth System of …, priority 2011, dated 2018).

Regarding LAALPHSCL (listed as Homo sapiens), the “Tc1 recognition of tumor pericytes/VEC by splenic CD8+ T cells of cured mice” value is “clear Tc1 recognition of tumor (but not tumor-uninvolved kidney) pericytes”.
